For orientation: boiling point means the temperature at which the vapour pressure of the liquid equals the pressure above it. By melting point is commonly meant the temperature of the solid-liquid transition.

Details in one data set: not given
For the compound `CC(CCO)C(F)(F)F` (stereo unspecified), the boiling point is 140 °C.

As to `CN1CC[C@]23c4c5ccc(OCc6ccccc6)c4O[C@H]2[C@@H](O)C=C[C@H]3[C@H]1C5`, the melting point turned out to be 132 °C.

Regarding `ClCCOc1ccccc1`, the boiling point turned out to be 218 °C and the melting point worked out at 28 °C.

Consider `COC(=O)c1ccc(C(=O)OC)cc1`, for which the boiling point turned out to be 288 °C, the log10 vapour pressure (mmHg) was -2, the melting point was found to be 141 °C and the ready biodegradability result is “readily biodegradable”.

Compound `c1ccc(-c2ccncc2)cc1` came in with a boiling point of 281 °C and a melting point of 77.5 °C.

Compound `CC1=CCCC1C` (stereo unspecified) yielded a boiling point of 99 °C and a melting point of -118 °C.

On to `OC(c1ccccc1)c1ccc(Cl)cc1` (stereo unspecified), for which the melting point is 60.8 °C.

In turn, `Cc1cccc(N)n1` displayed a boiling point of 208 °C and a melting point of 41 °C.

As to `C=CCC`, the boiling point is -6.2 °C, the log10 Henry constant (atm·m³/mol) was -0.633, the log10 vapour pressure (mmHg) amounted to 3.35 and the melting point is -185 °C.

For the compound `CC(C)(C)c1ccc(Cl)cc1`, the boiling point was 213 °C.

`CCCCNC(=O)c1ccc(Cl)cc1O` displayed a melting point of 91.5 °C.

The compound `CC(C)CCC[C@@H](C)[C@H]1CC[C@H]2[C@@H]3CCC4=C[C@@H](O)CC[C@]4(C)[C@H]3CC[C@]12C` returned a melting point of 132 °C.

With `Cc1ccc2c(ccc3cc4ccccc4cc32)c1`, the melting point stood at 156 °C.

Consider `CCCC=CC(=O)OCC`, for which the boiling point came out at 174 °C.

With `FC(F)=C(Cl)C(F)(F)F`, the boiling point was found to be 6.8 °C and the melting point is -130 °C.

`C[N+]1(C)CCCCC1.[Cl-]` came in with a melting point of 223 °C.

`Clc1cc(Cl)c(-c2ccccc2)c(Cl)c1` showed a log10 vapour pressure (mmHg) of -3.15.

On to `CCCCCCCCCC(=O)OC`, for which the boiling point was found to be 224 °C, the log10 vapour pressure (mmHg) was -1.43 and the melting point was -18 °C.

For the compound `Cc1cc[nH]n1`, the boiling point amounted to 204 °C and the melting point turned out to be 36.5 °C.

`CCOC(=O)c1cccc(OC)c1` yielded a boiling point of 260 °C.

As to `CC(C)OC(=O)C(Cl)(Cl)Cl`, the boiling point was 175 °C.

On to `CCC(C)(O)CC`, for which the boiling point was found to be 122 °C, the log10 vapour pressure (mmHg) worked out at 0.745 and the melting point is -23.6 °C.

Take `CCCCCCCCCCCCCCCCCC(=O)NCCNC(=O)CCCCCCCCCCCCCCCCC`: the ready biodegradability entry is reported as “not readily biodegradable”.

Compound `Cc1ccc(O)cc1N` gave a melting point of 158 °C.

`CC(C)CC(=O)O` registered a boiling point of 176 °C, a log10 Henry constant (atm·m³/mol) of -6.08, a log10 vapour pressure (mmHg) of -0.356 and a melting point of -29.3 °C. Moreover, the ready biodegradability result is “readily biodegradable”.

The compound `Cn1c([N+](=O)[O-])cnc1COC(N)=O` gave a melting point of 168 °C.

As to `COc1ccccn1`, the boiling point turned out to be 142 °C.

`Brc1cc(Br)c(Br)c(Oc2ccc(Br)c(Br)c2Br)c1`: the ready biodegradability entry is on record as “not readily biodegradable”.

The compound `CC(C)CCCC(C)N` (stereo unspecified) displayed a boiling point of 155 °C.

Take `COC(=O)c1cccc(C)c1O`: the boiling point was 235 °C and the melting point was found to be 29 °C.

As for `COC(=O)Nc1cccc(C)c1`, the ready biodegradability entry is reported as “readily biodegradable”.

In the case of `C=CCCCCCCCCCCCCCCCCCC`, the boiling point is 341 °C, the log10 vapour pressure (mmHg) was -4.98 and the melting point was 28.5 °C.

Take `C=Cc1ccc(CC)cc1`: the boiling point is 192 °C, the log10 vapour pressure (mmHg) is -0.0246, the melting point was -49.7 °C and the ready biodegradability entry was “not readily biodegradable”.

`CC(C)OC(C)(C)C` gave a boiling point of 87.6 °C and a melting point of -88 °C.

`CCCCCCCCCCCC(=O)NCCC[N+](C)(C)CC(=O)[O-]`: the ready biodegradability entry was “readily biodegradable”.

Regarding `O=C(O)COc1ccc(Cl)cc1Cl`, the log10 Koc (L/kg) stood at 1.66, the log10 vapour pressure (mmHg) was -4.08, the melting point turned out to be 140 °C and the ready biodegradability entry was “not readily biodegradable”.

As to `O=C1C=CC(=O)c2c(O)ccc(O)c21`, the melting point was 232 °C.

Take `O=S(=O)(Oc1ccc(Cl)cc1)c1ccc(Cl)cc1`: the melting point was 86.5 °C and the ready biodegradability result is “not readily biodegradable”.

For `CCCCCCCCCCCCCCCCCC(=O)OCCOCCOCCOCCO`, the melting point worked out at 40 °C.

For `FC(F)(Cl)CCl`, the boiling point is 46.8 °C, the log10 vapour pressure (mmHg) amounted to 2.53 and the melting point was -101 °C.

The same data set, now with this note: fish.
As to `OC(c1ccccc1)c1ccc(Cl)cc1` (stereo unspecified), the log10 BCF was 1.79 and the log10 biotransformation half-life (days) was -0.89.

`C=Cc1ccc(CC)cc1` gave a log10 BCF of 2.69.

(Values after the OPERA property sets (Mansouri et al. 2018).)
